In article PMC6713088, “Synthesis and biological evaluation of novel 3-(quinolin-4-ylamino)benzenesulfonamides as carbonic anhydrase isoforms I and II inhibitors” (Journal of Enzyme Inhibition and Medicinal Chemistry, 2019):
Where two headings read alike, the source gives them in different places.

How the values were obtained:
hCA I = target: T1, hCA I (Homo sapiens, UniProt P00915); assay: stopped-flow CO2 hydration assay; type: biochemical
T1 construct: gene CA1; cytosolic isoform
Excerpt: stopped-flow CO2 hydration assay on hCA I

hCA II = target: T2, hCA II (Homo sapiens, UniProt P00918); assay: stopped-flow CO2 hydration assay; type: biochemical
T2 construct: gene CA2; cytosolic isoform
Excerpt: (§1) stopped-flow CO2 hydration assay on hCA II

[1] = stopped-flow CO2 hydration assay; type: biochemical, Homo sapiens; conditions: read-out: KI (nM) ^* / hCA I
Excerpt: as §1

T1 sequence (P00915 2-261): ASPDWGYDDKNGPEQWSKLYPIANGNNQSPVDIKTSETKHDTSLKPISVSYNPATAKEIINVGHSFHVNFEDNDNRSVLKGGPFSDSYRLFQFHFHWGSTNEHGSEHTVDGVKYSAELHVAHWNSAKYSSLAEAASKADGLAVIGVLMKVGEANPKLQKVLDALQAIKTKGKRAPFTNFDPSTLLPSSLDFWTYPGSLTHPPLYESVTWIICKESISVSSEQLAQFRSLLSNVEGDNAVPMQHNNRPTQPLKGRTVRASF

CCOC(=O)c1cnc2ccccc2c1Nc1cccc(S(N)(=O)=O)c1 [6a, Ethyl 4-((3-sulphamoylphenyl)amino)quinoline-3-carboxylate]
Ki (hCA I): 4230 nM
Ki (hCA II): 223 nM

CCOC(=O)c1cnc2ccc(C)cc2c1Nc1cccc(S(N)(=O)=O)c1 [6b, Ethyl 6-methyl-4-((3-sulphamoylphenyl)amino)quinoline-3-carboxylate]
Ki (hCA I): 6640 nM
Ki (hCA II): 782 nM

CCOC(=O)c1cnc2ccc(OC)cc2c1Nc1cccc(S(N)(=O)=O)c1 [6c, Ethyl 6-methoxy-4-((3-sulphamoylphenyl)amino)quinoline-3-carboxylate]
Ki (hCA I): 966 nM
Ki (hCA II): 175 nM

CCOC(=O)c1cnc2ccc(Br)cc2c1Nc1cccc(S(N)(=O)=O)c1 [6d, Ethyl 6-bromo-4-((3-sulphamoylphenyl)amino)quinoline-3-carboxylate]
Ki (hCA I): 9090 nM
Ki (hCA II): 3590 nM

CCOC(=O)c1cnc2cc(Cl)c(F)cc2c1Nc1cccc(S(N)(=O)=O)c1 [6e, Ethyl 7-chloro-6-fluoro-4-((3-sulphamoylphenyl)amino)quinoline-3-carboxylate]
Ki (hCA I): 7600 nM
Ki (hCA II; CO2 […], […] Hepes pH […] Na2SO4, […] min preincubation at room temperature): 83.3 nM

CCOC(=O)c1cnc2cc(Cl)cc(Cl)c2c1Nc1cccc(S(N)(=O)=O)c1 [6f, Ethyl 5,7-dichloro-4-((3-sulphamoylphenyl)amino)quinoline-3-carboxylate]
Ki (hCA I): > 10000 nM
Ki [1]: > 10000 nM

CCOC(=O)c1cnc2cc(Cl)c(F)cc2c1Nc1cccc(S(=O)(=O)NC)c1 [compound 11, Ethyl 7-chloro-6-fluoro-4-((3-(N-methylsulphamoyl)phenyl)amino)quinoline-3-carboxylate]
Ki (hCA I): > 10000 nM
Ki [1]: > 10000 nM
